In brackets after ≈: the same amount, converted by molar mass.
What was measured:
Acinetobacter [1] = test: Antimicrobial activity against Acinetobacter assessed as susceptible isolate by broth microdilution method; format: functional
Citrobacter [2] = test: Antimicrobial activity against Citrobacter with derepressed AmpC beta-lactamsae by broth microdilution method; format: functional
Proteus mirabilis [3] = test: Antimicrobial activity against ESBL producing Proteus mirabilis by broth microdilution method; format: functional
Enterobacter cloacae [4] = test: Antimicrobial activity against Enterobacter cloacae with derepressed AmpC beta-lactamsae by broth microdilution method; format: functional
Pseudomonas aeruginosa [5] = test: Antimicrobial activity against Pseudomonas aeruginosa isolated from ICU patient assessed as susceptible isolate by broth microdilution method
Serratia marcescens [6] = test: Antimicrobial activity against Ceftazidime susceptible Serratia marcescens by broth microdilution method; format: functional
Escherichia coli [7] = test: Antimicrobial activity against Non-ESBL Escherichia coli by broth microdilution method; format: functional
Pseudomonas aeruginosa [8] = test: Antimicrobial activity against imipenem non-susceptible Pseudomonas aeruginosa by broth microdilution method; format: functional
Pseudomonas aeruginosa [9] = test: Antimicrobial activity against Ceftazidime susceptible Pseudomonas aeruginosa by broth microdilution method; format: functional
Enterobacteriaceae [10] = test: Antimicrobial activity against Enterobacteriaceae by broth microdilution method; format: functional
Klebsiella pneumoniae [11] = test: Antimicrobial activity against ESBL producing Klebsiella pneumoniae assessed as susceptible isolate by broth microdilution method; format: functional
Enterobacter cloacae [12] = test: Antimicrobial activity against Enterobacter cloacae with derepressed AmpC beta-lactamsae assessed as susceptible isolate by broth microdilution method; format: functional
Staphylococcus [13] = test: Antimicrobial activity against methicillin-susceptible coagulase-negative Staphylococcus by broth microdilution method; format: functional; conditions: Staphylococcus
Escherichia coli [14] = test: Antimicrobial activity against ESBL producing Escherichia coli by broth microdilution method; format: functional
Serratia marcescens [15] = test: Antimicrobial activity against Ceftazidime non-susceptible Serratia marcescens by broth microdilution method; format: functional
Acinetobacter [16] = test: Antimicrobial activity against imipenem non-susceptible Acinetobacter assessed as susceptible isolate by broth microdilution method; format: functional
Acinetobacter [17] = test: Antimicrobial activity against imipenem non-susceptible Acinetobacter by broth microdilution method; format: functional
Pseudomonas aeruginosa [18] = test: Antimicrobial activity against Ceftazidime non-susceptible Pseudomonas aeruginosa by broth microdilution method; format: functional
Escherichia coli [19] = test: Antimicrobial activity against Escherichia coli by broth microdilution method; format: functional
Escherichia coli [20] = test: Antimicrobial activity against Escherichia coli assessed as susceptible isolate by broth microdilution method; format: functional
Escherichia coli [21] = test: Antimicrobial activity against Non-ESBL Escherichia coli assessed as susceptible isolate by broth microdilution method; format: functional
Proteus mirabilis [22] = test: Antimicrobial activity against Non-ESBL Proteus mirabilis assessed as susceptible isolate by broth microdilution method; format: functional
Proteus mirabilis [23] = test: Antimicrobial activity against Proteus mirabilis assessed as susceptible isolate by broth microdilution method; format: functional
Serratia marcescens [24] = test: Antimicrobial activity against Serratia marcescens by broth microdilution method; format: functional
Proteus mirabilis [25] = test: Antimicrobial activity against ESBL producing Proteus mirabilis assessed as susceptible isolate by broth microdilution method; format: functional
Pseudomonas aeruginosa [26] = test: Antimicrobial activity against Ceftazidime non-susceptible Pseudomonas aeruginosa assessed as susceptible isolate by broth microdilution method; format: functional
Staphylococcus [27] = test: Antimicrobial activity against methicillin-resistant coagulase-negative Staphylococcus by broth microdilution method; format: functional
Citrobacter [28] = test: Antimicrobial activity against Citrobacter by broth microdilution method; format: functional
Pseudomonas aeruginosa [29] = test: Antimicrobial activity against Ceftazidime susceptible Pseudomonas aeruginosa assessed as resistant isolate by broth microdilution method; format: functional
Citrobacter [30] = test: Antimicrobial activity against Citrobacter with nonderepressed AmpC beta-lactamsae assessed as resistant isolate by broth microdilution method; format: functional
Pseudomonas aeruginosa [31] = test: Antimicrobial activity against imipenem non-susceptible Pseudomonas aeruginosa assessed as resistant isolate by broth microdilution method; format: functional
Klebsiella pneumoniae [32] = test: Antimicrobial activity against ESBL producing Klebsiella pneumoniae assessed as intermediate isolate by broth microdilution method; format: functional
Klebsiella pneumoniae [33] = test: Antimicrobial activity against ESBL producing Klebsiella pneumoniae assessed as resistant isolate by broth microdilution method; format: functional
Pseudomonas aeruginosa [34] = test: Antimicrobial activity against Ceftazidime non-susceptible Pseudomonas aeruginosa assessed as intermediate isolate by broth microdilution method; format: functional
Pseudomonas aeruginosa [35] = test: Antimicrobial activity against Pseudomonas aeruginosa isolated from ICU patient assessed as resistant isolate by broth microdilution method
Serratia marcescens [36] = test: Antimicrobial activity against Ceftazidime susceptible Serratia marcescens assessed as resistant isolate by broth microdilution method; format: functional
Enterobacteriaceae [37] = test: Antimicrobial activity against Ceftazidime non-susceptible Enterobacteriaceae assessed as intermediate isolate by broth microdilution method; format: functional
Acinetobacter [38] = test: Antimicrobial activity against imipenem non-susceptible Acinetobacter assessed as intermediate isolate by broth microdilution method; format: functional
Citrobacter [39] = test: Antimicrobial activity against Citrobacter with derepressed AmpC beta-lactamsae assessed as intermediate isolate by broth microdilution method; format: functional
Enterobacter cloacae [40] = test: Antimicrobial activity against Enterobacter cloacae with nonderepressed AmpC beta-lactamsae assessed as intermediate isolate by broth microdilution method; format: functional
Pseudomonas aeruginosa [41] = test: Antimicrobial activity against imipenem non-susceptible Pseudomonas aeruginosa assessed as intermediate isolate by broth microdilution method; format: functional
Pseudomonas aeruginosa [42] = test: Antimicrobial activity against Ceftazidime non-susceptible Pseudomonas aeruginosa assessed as resistant isolate by broth microdilution method; format: functional
Pseudomonas aeruginosa [43] = test: Antimicrobial activity against Pseudomonas aeruginosa isolated from non-ICU patient assessed as resistant isolate by broth microdilution method
Pseudomonas aeruginosa [44] = test: Antimicrobial activity against Pseudomonas aeruginosa isolated from ICU patient assessed as intermediate isolate by broth microdilution method
Escherichia coli [45] = test: Antimicrobial activity against ESBL producing Escherichia coli assessed as intermediate isolate by broth microdilution method; format: functional
Enterobacteriaceae [46] = test: Antimicrobial activity against ceftazidime-susceptible Enterobacteriaceae assessed as resistant isolate by broth microdilution method; format: functional

C[C@@H](O)[C@H]1C(=O)N2C(C(=O)O)=C(S[C@@H]3CN[C@H](CNS(N)(=O)=O)C3)[C@H](C)[C@H]12 [DORIPENEM]
Activity (Acinetobacter [1]): 73.4% | MIC50 (Citrobacter [2]): 0.06 µg/mL (≈ 0.143 µM) | MIC90 (Citrobacter [2]): 0.06 µg/mL (≈ 0.143 µM) | MIC (Proteus mirabilis [3]): 0.06 µg/mL (≈ 0.143 µM) | MIC50 (Enterobacter cloacae [4]): 0.12 µg/mL (≈ 0.285 µM) | MIC90 (Enterobacter cloacae [4]): 0.25 µg/mL (≈ 0.595 µM) | Activity (Pseudomonas aeruginosa [5]): 78.4% | MIC50 (Serratia marcescens [6]): 0.12 µg/mL (≈ 0.285 µM) | MIC90 (Serratia marcescens [6]): 0.25 µg/mL (≈ 0.595 µM) | MIC (Escherichia coli [7]): ≤ 0.015 µg/mL | MIC50 (Escherichia coli [7]): ≤ 0.015 µg/mL | MIC90 (Escherichia coli [7]): 0.03 µg/mL (≈ 0.0713 µM) | MIC50 (Pseudomonas aeruginosa [8]): 2 µg/mL (≈ 4.76 µM) | MIC90 (Pseudomonas aeruginosa [8]): 16 µg/mL (≈ 38 µM) | MIC50 (Pseudomonas aeruginosa [9]): 0.25 µg/mL (≈ 0.595 µM) | MIC90 (Pseudomonas aeruginosa [9]): 2 µg/mL (≈ 4.76 µM) | MIC50 (Enterobacteriaceae [10]): 0.03 µg/mL (≈ 0.0713 µM) | MIC90 (Enterobacteriaceae [10]): 0.12 µg/mL (≈ 0.285 µM) | Activity (Klebsiella pneumoniae [11]): 95.5% | Activity (Enterobacter cloacae [12]): 99% | MIC50 (Staphylococcus [13]; read-out: MIC50): 0.03 µg/mL (≈ 0.0713 µM) | MIC90 (Staphylococcus [13]; read-out: MIC90): 0.06 µg/mL (≈ 0.143 µM) | MIC50 (Escherichia coli [14]): 0.03 µg/mL (≈ 0.0713 µM) | MIC90 (Escherichia coli [14]): 0.06 µg/mL (≈ 0.143 µM) | MIC50 (Serratia marcescens [15]): 0.12 µg/mL (≈ 0.285 µM) | MIC90 (Serratia marcescens [15]): 0.25 µg/mL (≈ 0.595 µM) | Activity (Acinetobacter [16]): 0% | MIC50 (Acinetobacter [17]): 32 µg/mL (≈ 76.1 µM) | MIC90 (Acinetobacter [17]): > 32 µg/mL | MIC50 (Pseudomonas aeruginosa [18]): 1 µg/mL (≈ 2.38 µM) | MIC90 (Pseudomonas aeruginosa [18]): 16 µg/mL (≈ 38 µM) | MIC (Escherichia coli [19]): ≤ 0.015 µg/mL | MIC50 (Escherichia coli [19]): ≤ 0.015 µg/mL | MIC90 (Escherichia coli [19]): 0.03 µg/mL (≈ 0.0713 µM) | Activity (Escherichia coli [20]): 99.8% | Activity (Escherichia coli [21]): 99.8% | Activity (Proteus mirabilis [22]): 98.9% | Activity (Proteus mirabilis [23]): 98.9% | MIC50 (Serratia marcescens [24]): 0.12 µg/mL (≈ 0.285 µM) | MIC90 (Serratia marcescens [24]): 0.25 µg/mL (≈ 0.595 µM) | Activity (Proteus mirabilis [25]): 100% | Activity (Pseudomonas aeruginosa [26]): 60.9% | MIC50 (Staphylococcus [27]): 1 µg/mL (≈ 2.38 µM) | MIC90 (Staphylococcus [27]): 8 µg/mL (≈ 19 µM) | MIC50 (Citrobacter [28]): 0.03 µg/mL (≈ 0.0713 µM) | MIC90 (Citrobacter [28]): 0.06 µg/mL (≈ 0.143 µM)

CC(C)(O/N=C(\C(=O)N[C@@H]1C(=O)N2C(C(=O)[O-])=C(C[n+]3ccccc3)CS[C@H]12)c1csc(N)n1)C(=O)O [CEFTAZIDIME]
MIC (Citrobacter [2]): > 32 µg/mL | MIC50 (Citrobacter [2]): > 32 µg/mL | MIC90 (Citrobacter [2]): > 32 µg/mL | MIC (Proteus mirabilis [3]): 8 µg/mL (≈ 14.6 µM) | Activity (Pseudomonas aeruginosa [29]): 0% | MIC50 (Enterobacter cloacae [4]): > 32 µg/mL | MIC90 (Enterobacter cloacae [4]): > 32 µg/mL | Activity (Citrobacter [30]): 1.3% | Activity (Pseudomonas aeruginosa [31]): 18.4% | Activity (Pseudomonas aeruginosa [5]): 79.9% | MIC50 (Serratia marcescens [6]): 0.12 µg/mL (≈ 0.22 µM) | MIC90 (Serratia marcescens [6]): 0.5 µg/mL (≈ 0.915 µM) | Activity (Klebsiella pneumoniae [32]): 0% | Activity (Klebsiella pneumoniae [33]): 95.5% | MIC50 (Escherichia coli [7]): 0.12 µg/mL (≈ 0.22 µM) | MIC90 (Escherichia coli [7]): 0.25 µg/mL (≈ 0.457 µM) | MIC50 (Pseudomonas aeruginosa [8]): 4 µg/mL (≈ 7.32 µM) | MIC90 (Pseudomonas aeruginosa [8]): > 32 µg/mL | Activity (Pseudomonas aeruginosa [34]): 23.6% | MIC50 (Pseudomonas aeruginosa [9]): 2 µg/mL (≈ 3.66 µM) | MIC90 (Pseudomonas aeruginosa [9]): 4 µg/mL (≈ 7.32 µM) | Activity (Klebsiella pneumoniae [11]): 4.5% | Activity (Enterobacter cloacae [12]): 1% | MIC50 (Escherichia coli [14]): 32 µg/mL (≈ 58.5 µM) | MIC90 (Escherichia coli [14]): > 32 µg/mL | Activity (Pseudomonas aeruginosa [35]): 14.4% | Activity (Serratia marcescens [36]): 0% | MIC (Serratia marcescens [15]): > 32 µg/mL | MIC50 (Serratia marcescens [15]): > 32 µg/mL | MIC90 (Serratia marcescens [15]): > 32 µg/mL | Activity (Enterobacteriaceae [37]): 7.6% | Activity (Acinetobacter [16]): 15.7% | Activity (Acinetobacter [38]): 0% | Activity (Citrobacter [39]): 0% | MIC50 (Acinetobacter [17]): > 32 µg/mL | MIC90 (Acinetobacter [17]): > 32 µg/mL | Activity (Enterobacter cloacae [40]): 0.7% | MIC50 (Pseudomonas aeruginosa [18]): 32 µg/mL (≈ 58.5 µM) | MIC90 (Pseudomonas aeruginosa [18]): > 32 µg/mL | Activity (Pseudomonas aeruginosa [41]): 5.3% | Activity (Pseudomonas aeruginosa [42]): 76.4% | Activity (Escherichia coli [21]): 98.6% | Activity (Proteus mirabilis [22]): 99.5% | Activity (Pseudomonas aeruginosa [43]): 10.4% | Activity (Pseudomonas aeruginosa [44]): 5.8% | Activity (Escherichia coli [45]): 10% | Activity (Proteus mirabilis [25]): 50% | Activity (Pseudomonas aeruginosa [26]): 0% | Activity (Enterobacteriaceae [46]): 0%

— ChEMBL document CHEMBL1275550, “In vitro activity of doripenem, a carbapenem for the treatment of challenging infections caused by gram-negative bacteria, against recent clinical isolates from the United States” (2008)
